The values that follow come from patent publication US20150050299A1, “METHODS FOR ENHANCING IMMUNE RESPONSE” (priority 2010, published 2015).

Read-outs that look alike come from different tables or passages of the source.

For orientation: IC50 means the concentration needed to halve the response being measured.

For test [1], the system named is squamous cell carcinomas (SCCs). Format: in vivo. The settings on record: agent alone. The procedure: The combination therapy of polyamine biosynthesis/uptake inhibition was tested against the K6/ODC transgenic mouse murine squamous cell carcinoma (SCC) model recently described.^98 The K6/ODC model was developed to assess whether ODC overexpression was a contributing cause, or an effect of malignant transformation. […] While most skin tumorigenesis models yielded benign squamous papillomas as the predominant tumor type, when the K6/ODC transgene was expressed on the FVB/N strain background, the majority of tumors that developed were aggressive squamous cell carcinomas. These SCCs appeared as early as 5 weeks after treatment and in high multiplicities (up to four tumors per mouse), making this a very efficient model for SCC induction. Using this model, we were thus able to conclude that over-expression of ODC is a sufficient condition for tumor promotion in mouse skin.^99
We conducted an in vivo anti-tumor trial of DFMO combined with either the D-C16-acyl Lys-spm conjugate AMXT 1501 (FIG. 4) or the L-C16-alkyl AMXT 1569 analog (FIG. 5) in the K6/ODC SCC model.
The concentration of AMXT 1501 was 14 μg/ml, or an average daily dose of ˜50-65 μg (equivalent to ˜3 mg/kg/d). […] It is expected that great improvements in the oral bioavailability of AMXT 1501 would result from insightful drug formulation.

Test [2] has as its system UVB-induced skin cancer. As to conditions: 1% in drinking water for 3 weeks before UVB; untreated control 38%; cited from earlier work.
In test [3] the test system is UV-induced tumor challenges. As to conditions: splenocytes from UV-irradiated treated mice; without treatment 20 of 24; cited from earlier work.
Test [4] relates to B16F1 cells. As to conditions: 0.5 to 2.0% oral; cited from earlier work.
Test [5] relates to iNOS protein translation. The settings on record: read-out: IC50, iNOS protein translation; RAW 264.7 cells; cited from earlier work.
Test [6] deals with iNOS protein translation. As to conditions: read-out: IC50, iNOS protein translation; peritoneal macrophages; cited from earlier work.
In test [7] the test system is L1210 leukemia. The settings on record: cited from earlier work.
For test [8], the system named is L1210 cells. The settings on record: i.p. 5 mg/kg for 9 days; cited from earlier work.
Test [9] has as its system 4T1 breast cancer cells. The settings on record: mouse, in vivo; cited from earlier work.

As to `NCCC[C@](N)(C(=O)O)C(F)F` [DFMO, α-difluoromethylornithine], the “anti-tumor response to single agent” value in test [1] is on record as “weak effect”. Moreover, the “occurrence of skin cancer” value in test [2] was 9%. Further, the “recipient mice in which tumors grew” value in test [3] was 2 of 24. In addition, the “macrophage mediated cytolysis of B16F1 cells” value in test [4] is “two-fold augmented”.
As to `NCCCNCCCCNCCCN` [spermine], the results for the IC50 in test [5] and in test [6] were 9.2 µM and 9 µM, respectively.
With `CCNCCCNCCCCCCCNCCCNCC` [BEPH, N,N′-bis[3-(ethylamino)-propyl]-1-7-heptane diamine], the “outcome of L1210 leukemia” value in test [7] (T-cell deficient nude mice) is “not curative”; in [7] (immunocompetent C57BL mice) it was “cured”. In addition, in test [7] (at the doses used), the “effect on tumor or spleen cell polyamine levels” value is listed as “no effect”.
As for `NCCCNCCCCNC(=O)[C@H](O)NC(=O)C[C@@H](O)CCCCN=C(N)N` [sperqualin], in test [8], the survival result was “more than 60 days”.
For the compound `c1cc(CN2CCCNCCNCCCNCC2)ccc1CN1CCCNCCNCCCNCC1` [AMD3100, plerixafor], the “growth of transplanted 4T1 cells” value in [9] is reported as “significantly reduced”.
